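Exposure lasted 48 hours, with cells grown in 96-well plates and compounds tested at five concentrations. The concentration for 50% growth inhibition is given as GI50.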 Calls of active or inactive are those of the source. No stated cut-off is given here; in the data, active = GI50 up to about 1.1 µM and inactive = higher.
What was measured:
Assay in all cases: DTP human tumour cell line panel, 48 h
[1] = tested on: ACHN
[2] = tested on: CCRF-CEM
[3] = tested on: COLO 205
[4] = tested on: HCC 2998
[5] = tested on: HCT-116
[6] = tested on: HL-60
[7] = tested on: Hs-578T
[8] = tested on: IGROV-1
[9] = tested on: K562
[10] = tested on: KM12
[11] = tested on: LOX IMVI
[12] = tested on: MDA-MB-231
[13] = tested on: MDA-N
[14] = tested on: Malme-3M
[15] = tested on: SF-539
[16] = tested on: SK-OV-3
[17] = tested on: SNB-75
[18] = tested on: SW-620
[19] = tested on: U-251
[20] = tested on: UO-31

SMILES | GI50 [1] | GI50 [2] | GI50 [3] | GI50 [4] | GI50 [5] | GI50 [6] | GI50 [7] | GI50 [8] | GI50 [9] | GI50 [10] | GI50 [11] | GI50 [12] | GI50 [13] | GI50 [14] | GI50 [15] | GI50 [16] | GI50 [17] | GI50 [18] | GI50 [19] | GI50 [20]
N/C(S)=N/N=C/c1ccc(N)cn1 | 1.29 µM (inactive) | 1.93 µM (inactive) | 2.99 µM (inactive) | 3.65 µM (inactive) | 3.98 µM (inactive) | 1.91 µM (inactive) | > 8.36 µM (inactive) | > 10 µM (inactive) | 3.1 µM (inactive) | 6.22 µM (inactive) | 3.62 µM (inactive) | > 6.79 µM (inactive) | > 6.59 µM (inactive) | 4.42 µM (inactive) | 0.404 µM (active) | 9.84 µM (inactive) | 2.4 µM (inactive) | > 10 µM (inactive) | 4.06 µM (inactive) | 2.28 µM (inactive)
COc1ccc2[nH]c(S(=O)(=O)N3CC(CCl)c4ccc(N)cc43)cc2c1 (stereo not given) | 8.91 µM (inactive) | 0.362 µM (active) | 4.42 µM (inactive) | 2.94 µM (inactive) | 0.0269 µM (active) | < 0.01 µM (active) | 0.0953 µM (active) | 0.0547 µM (active) | < 0.01 µM (active) | < 0.01 µM (active) | < 0.0229 µM (active) | 0.239 µM (active) | < 0.01 µM (active) | 0.0984 µM (active) | 0.0478 µM (active) | 0.208 µM (active) | 0.0718 µM (active) | 0.0358 µM (active) | 0.4 µM (active) | 0.0403 µM (active)
CC[N+]1(C)CCC(O)(/C=C/c2ccccc2)C(C(=O)/C=C/c2ccccc2)C1 (stereo not given) | 11.1 µM (inactive) | 1.94 µM (inactive) | 3.44 µM (inactive) | 16.7 µM (inactive) | 6 µM (inactive) | 2.31 µM (inactive) | 28.4 µM (inactive) | 18.7 µM (inactive) | 2.7 µM (inactive) | 3.71 µM (inactive) | 2.79 µM (inactive) | 10.8 µM (inactive) | 6.11 µM (inactive) | 15 µM (inactive) | 7.43 µM (inactive) | 18.2 µM (inactive) | 14.7 µM (inactive) | 2.45 µM (inactive) | 8 µM (inactive) | 15.6 µM (inactive)
CN(C)c1cccc2c(S(=O)(=O)NCCCNCCN)cccc12 | > 100 µM (inactive) | 22.3 µM (inactive) | 17.6 µM (inactive) | 24 µM (inactive) | 36.2 µM (inactive) | 26.1 µM (inactive) | 22.3 µM (inactive) | 67.9 µM (inactive) | 20.8 µM (inactive) | 67 µM (inactive) | 66.8 µM (inactive) | 41.5 µM (inactive) | 26.2 µM (inactive) | 61.5 µM (inactive) | 21.3 µM (inactive) | 46.9 µM (inactive) | 13.6 µM (inactive) | 55.2 µM (inactive) | 29 µM (inactive) | 56.9 µM (inactive)
C[C@H]1CC[C@H](NC(=O)N(CCCl)N=O)CC1 | 49.4 µM (inactive) | 13.2 µM (inactive) | 32.7 µM (inactive) | 44 µM (inactive) | 39.6 µM (inactive) | 14.4 µM (inactive) | 57.4 µM (inactive) | 38.8 µM (inactive) | 34.3 µM (inactive) | 59.3 µM (inactive) | 13 µM (inactive) | 48 µM (inactive) | 44.8 µM (inactive) | 47.9 µM (inactive) | 27.1 µM (inactive) | 77.3 µM (inactive) | 31.1 µM (inactive) | 31.3 µM (inactive) | 26.7 µM (inactive) | 49.9 µM (inactive)
COC12OC3CC4(C)C(=CC3OC(OC(C)C1O)C2O)CCC1C4CCC2(C)C(c3ccc(=O)oc3)CCC12O (stereo not given) | 0.00181 µM (active) | 0.00125 µM (active) | 0.00196 µM (active) | 0.00338 µM (active) | 0.00136 µM (active) | 0.00139 µM (active) | < 0.001 µM (active) | 0.00171 µM (active) | 0.00237 µM (active) | 0.00247 µM (active) | 0.00137 µM (active) | 0.00281 µM (active) | 0.00215 µM (active) | 0.00168 µM (active) | 0.00126 µM (active) | 0.00289 µM (active) | 0.00202 µM (active) | 0.00178 µM (active) | 0.00142 µM (active) | 0.0017 µM (active)
O=C(/C=C/c1ccco1)c1cccc(C(=O)/C=C/c2ccco2)n1 | 21.9 µM (inactive) | 0.71 µM (active) | 23.6 µM (inactive) | > 75.9 µM (inactive) | 2.78 µM (inactive) | 0.0409 µM (active) | 4.4 µM (inactive) | 6.82 µM (inactive) | 2.91 µM (inactive) | 3.98 µM (inactive) | 1.78 µM (inactive) | 40.1 µM (inactive) | 10.7 µM (inactive) | 25.7 µM (inactive) | 5.01 µM (inactive) | 47.8 µM (inactive) | 45.5 µM (inactive) | 3.2 µM (inactive) | 5.22 µM (inactive) | 6.43 µM (inactive)
CC(C)(C)OC(=O)N/N=C(/N)Cc1ccccc1 | > 100 µM (inactive) | > 100 µM (inactive) | > 100 µM (inactive) | > 100 µM (inactive) | > 100 µM (inactive) | > 100 µM (inactive) | > 100 µM (inactive) | > 100 µM (inactive) | > 100 µM (inactive) | > 100 µM (inactive) | > 100 µM (inactive) | > 100 µM (inactive) | > 100 µM (inactive) | > 100 µM (inactive) | > 100 µM (inactive) | > 100 µM (inactive) | > 100 µM (inactive) | > 100 µM (inactive) | > 100 µM (inactive) | > 100 µM (inactive)
Cc1cc(C)c(S(=O)(=O)N[C@@H](/C=C(\Br)CO)C(C)C)c(C)c1 | 30.4 µM (inactive) | 27.3 µM (inactive) | 15.8 µM (inactive) | 24.5 µM (inactive) | 33.4 µM (inactive) | 17.9 µM (inactive) | 22.5 µM (inactive) | 29.9 µM (inactive) | 18.5 µM (inactive) | 33.6 µM (inactive) | 18.7 µM (inactive) | 23.6 µM (inactive) | 26.1 µM (inactive) | 21.5 µM (inactive) | 31.8 µM (inactive) | 50.5 µM (inactive) | 45 µM (inactive) | 27 µM (inactive) | 25.4 µM (inactive) | 33 µM (inactive)
O=[N+]([O-])C(=C(Cl)Cl)C(Cl)=C(Cl)Cl | 0.635 µM (active) | < 0.01 µM (active) | 0.0368 µM (active) | 1.3 µM (inactive) | 0.0929 µM (active) | < 0.0194 µM (active) | 0.485 µM (active) | 0.422 µM (active) | 0.0118 µM (active) | 1.85 µM (inactive) | < 0.0117 µM (active) | 0.505 µM (active) | 0.206 µM (active) | 0.0454 µM (active) | 1.45 µM (inactive) | 3.25 µM (inactive) | 1.39 µM (inactive) | 0.0169 µM (active) | 2.81 µM (inactive) | 0.836 µM (active)

Source: ChEMBL document CHEMBL1201862, “PubChem BioAssay data set” (2004)
